{"source": "patent US11040087B2", "about": "“Therapeutic agent for diseases associated with abnormalities in dystroglycan sugar chain modification and method for assaying associated enzyme” (NATIONAL UNIVERSITY CORPORATION KOBE UNIVERSITY, priority 2016, dated 2021)", "key": {"[1]": {"system": "ISPD-deficient HAP1 cells", "conditions": "ISPD-deficient (KO) HAP1 cells; CDP-ribitol added to culture medium at final concentration 1 mM; culture 24 hours; western blot", "method": "(§1) In this Example, for HAP1 cells and HEK cells, cells deficient in ISPD were generated using a CRISPR/CAS9 genome editing method. The HAP1 cells are a haploid cell line derived from cultured human leukemia cells (KBM7), and are cells capable of being subjected to genome editing with high efficiency.\n(§2) The deficiency mutation of the ISPD-deficient cells was confirmed by DNA sequencing. To each culture medium, CDP-ribitol was added at a final concentration of 1 mM, followed by culture for 24 hours. After the culture, cell endogenous dystroglycan was prepared from a cell extract, and the state of glycosylation was confirmed by a western blot method."}, "[2]": {"system": "ISPD-deficient HEK cells", "conditions": "ISPD-deficient (KO) HEK cells; CDP-ribitol 1 mM administered simultaneously with cell transfection reagent (lipofectamine); culture 24 hours; western blot", "method": "as §1, §2"}}, "data": [{"substance": "cytidine diphosphate ribitol [CDP-ribitol]", "values": [{"measurement": "state of glycosylation of cell endogenous dystroglycan (α-DG)", "setting": "[1]", "result": "caused glycosylation of α-DG similar to that in the normal cells"}, {"measurement": "state of glycosylation of cell endogenous dystroglycan (α-DG)", "setting": "[2]", "result": "the restoration of the glycan was confirmed"}]}]}
